One test concerns the target EeAChE (Electrophorus electricus, UniProt O42275). Briefly: AChE inhibition assay. It is filed as biochemical.
Another test has as its target hBACE 1 (Homo sapiens, UniProt P56817). The experiment in a line: BACE 1 inhibition assay. The class given is biochemical.
The mark [1] stands for this setting: read-out: eeAChE IC50 (μM) ± SD, Ellman assay, mean ± SD of three experiments.
The mark [2] stands for this setting: read-out: hBACE 1 IC50 (μM) ± SD, FRET assay, mean ± SD of three experiments.

One may read the IC50 as the midpoint of a concentration-inhibition curve.

Like-named read-outs stand apart in the source and are kept apart here.

Sequence of EeAChE (O42275 24-633): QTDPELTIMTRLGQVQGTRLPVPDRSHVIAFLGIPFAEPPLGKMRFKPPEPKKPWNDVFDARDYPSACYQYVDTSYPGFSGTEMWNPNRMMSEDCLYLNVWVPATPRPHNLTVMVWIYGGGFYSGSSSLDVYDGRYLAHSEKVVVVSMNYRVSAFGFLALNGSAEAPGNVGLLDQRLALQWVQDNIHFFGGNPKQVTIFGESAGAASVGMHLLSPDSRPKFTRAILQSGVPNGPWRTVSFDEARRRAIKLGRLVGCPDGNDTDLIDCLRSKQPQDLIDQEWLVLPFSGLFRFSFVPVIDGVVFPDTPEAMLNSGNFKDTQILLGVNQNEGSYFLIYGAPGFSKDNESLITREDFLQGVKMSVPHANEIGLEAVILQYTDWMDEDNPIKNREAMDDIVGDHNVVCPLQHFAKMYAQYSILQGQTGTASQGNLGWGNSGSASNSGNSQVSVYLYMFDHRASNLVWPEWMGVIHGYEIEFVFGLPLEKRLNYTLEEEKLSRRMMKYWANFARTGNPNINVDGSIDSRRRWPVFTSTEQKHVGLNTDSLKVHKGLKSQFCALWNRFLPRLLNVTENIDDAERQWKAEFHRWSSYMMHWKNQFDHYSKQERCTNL
Sequence of hBACE 1 (P56817 46-501): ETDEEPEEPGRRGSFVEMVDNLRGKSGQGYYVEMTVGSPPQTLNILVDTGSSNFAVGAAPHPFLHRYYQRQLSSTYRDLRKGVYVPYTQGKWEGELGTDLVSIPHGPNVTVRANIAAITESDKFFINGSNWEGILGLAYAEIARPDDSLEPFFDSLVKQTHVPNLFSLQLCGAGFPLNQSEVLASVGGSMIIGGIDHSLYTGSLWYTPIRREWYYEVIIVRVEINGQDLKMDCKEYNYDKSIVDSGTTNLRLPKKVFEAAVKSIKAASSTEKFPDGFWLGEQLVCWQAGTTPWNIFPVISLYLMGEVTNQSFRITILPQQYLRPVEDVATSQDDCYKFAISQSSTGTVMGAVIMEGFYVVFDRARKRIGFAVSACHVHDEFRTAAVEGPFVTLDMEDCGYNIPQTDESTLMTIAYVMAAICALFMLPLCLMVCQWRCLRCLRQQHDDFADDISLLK

For `[H]/N=C(/N)NN=C(/C=C/c1ccc(C(C)(C)C)cc1)c1cccn1Cc1ccc(F)cc1F` [Compound 3d, (Z)-2-((E)-3-(4-(tert-Butyl)phenyl)-1-(1-(2,4-difluorobenzyl)-1H-pyrrol-2-yl)allylidene)hydrazine-1-carboximidamide], the results for the 50% inhibitory concentration (IC50) on EeAChE (setting [1]) and on hBACE 1 (setting [2]) were 104.3 ± 0.14 µM and 221.8 ± 1.27 µM, respectively.

Regarding `[H]/N=C(/N)NN=C(/C=C/c1ccc(OC)c(OC)c1)c1cccn1Cc1cc(OC)cc(OC)c1` [Compound 3e, (Z)-2-((E)-1-(1-(3,5-Dimethoxybenzyl)-1H-pyrrol-2-yl)-3-(3,4-dimethoxyphenyl)allylidene)hydrazine-1-carboximidamide], the IC50 against EeAChE amounted to 57.2 ± 2.47 µM; at hBACE 1, 162 ± 2.43 µM.

Take `[H]/N=C(/N)NN=C(/C=C/c1ccc(F)c(F)c1)c1cccn1Cc1ccc(C(C)(C)C)cc1` [Compound 3f, (Z)-2-((E)-1-(1-(4-(tert-Butyl)benzyl)-1H-pyrrol-2-yl)-3-(3,4-difluorophenyl)allylidene)hydrazine-1-carboximidamide]: the IC50 came out at 126.1 ± 0.71 µM at EeAChE (setting [1]) and 135.9 ± 0.71 µM on hBACE 1 (setting [2]).

For the compound `[H]/N=C(/N)NN=C(/C=C/c1ccc(C(C)(C)C)cc1)c1cccn1Cc1ccc(-c2ccccc2)cc1` [Compound 3g, (Z)-2-((E)-1-(1-([1,1′-Biphenyl]-4-ylmethyl)-1H-pyrrol-2-yl)-3-(4-(tert-butyl)phenyl)allylidene)hydrazine-1-carboximidamide], the results for the IC50 against EeAChE and at hBACE 1 were 76.1 ± 0.79 µM and 185.4 ± 1.84 µM, respectively.

With `[H]/N=C(/N)NN=C(/C=C/c1ccc(C(C)(C)C)cc1)c1cccn1Cc1ccc(C(F)(F)F)cc1` [Compound 3h, (Z)-2-((E)-3-(4-(tert-Butyl)phenyl)-1-(1-(4-(trifluoromethyl)benzyl)-1H-pyrrol-2-yl)allylidene)hydrazine-1-carboximidamide], the concentration for half-maximal inhibition (IC50) at EeAChE was 71.17 ± 0.49 µM; on hBACE 1 it was 179 ± 2.26 µM.

Take `[H]/N=C(/N)NN=C(/C=C/c1ccc(C(C)(C)C)cc1)c1cccn1Cc1ccc(Br)cc1` [Compound 3i, (Z)-2-((E)-1-(1-(4-Bromobenzyl)-1H-pyrrol-2-yl)-3-(4-(tert-butyl)phenyl)allylidene)hydrazine-1-carboximidamide]: the results for the IC50 against EeAChE and on hBACE 1 were 83.94 ± 0.74 µM and 193 ± 2.12 µM, respectively.

As to `[H]/N=C(/N)NN=C(/C=C/c1cc(OC)cc(OC)c1)c1cccn1Cc1ccc(C(C)(C)C)cc1` [Compound 3j, (Z)-2-((E)-1-(1-(4-(tert-Butyl)benzyl)-1H-pyrrol-2-yl)-3-(3,5-dimethoxyphenyl)allylidene)hydrazine-1-carboximidamide], the half-maximal inhibitory concentration (IC50) was found to be 69.6 ± 1.51 µM at EeAChE and 177 ± 2.83 µM at hBACE 1.

Consider `[H]/N=C(/N)NN=C(/C=C/c1ccc(C(C)(C)C)cc1)c1cccn1Cc1ccc(C(C)(C)C)cc1` [Compound 3k, (Z)-2-((E)-1-(1-(4-(tert-Butyl)benzyl)-1H-pyrrol-2-yl)-3-(4-(tert-butyl)phenyl)allylidene)hydrazine-1-carboximidamide], for which the concentration for half-maximal inhibition (IC50) came out at 48.1 ± 0.52 µM against EeAChE and 178.2 ± 0.92 µM against hBACE 1.

Consider `[H]/N=C(/N)NN=C(/C=C/c1ccc(Cl)cc1)c1cccn1Cc1ccc(Br)cc1` [Compound 3l, (Z)-2-((E)-1-(1-(4-Bromobenzyl)-1H-pyrrol-2-yl)-3-(4-chlorophenyl)allylidene)hydrazine-1-carboximidamide], for which the half-maximal inhibitory concentration (IC50) against EeAChE was 123 ± 3.11 µM; against hBACE 1 it was 192.3 ± 1.77 µM.

The values are drawn from PMC11341970 (RSC Advances, 2024).
